Active and inactive are the calls of the source. No cut-off for these calls is given here.
How the values were obtained:
[1] = molecular target: T1, Pancreatic alpha-amylase (Sus scrofa, UniProt P00690); test: (§1) Inhibition of hog pancreas alpha-amylase using starch as substrate preincubated for 10 mins followed by substrate addition measured after 10 mins by dinitrosalicylic acid color reagent-based UV-Vis spectrophotometric analysis
T1 sequence (P00690 whole entry): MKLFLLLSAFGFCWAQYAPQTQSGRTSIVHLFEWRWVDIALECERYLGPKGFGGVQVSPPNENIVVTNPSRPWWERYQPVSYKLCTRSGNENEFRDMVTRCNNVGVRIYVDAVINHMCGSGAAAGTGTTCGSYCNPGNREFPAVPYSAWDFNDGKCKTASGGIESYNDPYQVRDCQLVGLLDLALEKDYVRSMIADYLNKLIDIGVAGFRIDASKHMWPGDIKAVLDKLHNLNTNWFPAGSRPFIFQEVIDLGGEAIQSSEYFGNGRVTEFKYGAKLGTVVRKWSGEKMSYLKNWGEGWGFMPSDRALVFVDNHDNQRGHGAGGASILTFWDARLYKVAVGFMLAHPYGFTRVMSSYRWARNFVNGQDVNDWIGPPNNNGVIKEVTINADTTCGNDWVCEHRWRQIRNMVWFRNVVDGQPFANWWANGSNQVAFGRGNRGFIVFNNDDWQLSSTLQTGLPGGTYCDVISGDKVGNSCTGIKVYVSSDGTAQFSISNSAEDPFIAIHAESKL

[2] = molecular target: T2, Pancreatic alpha-amylase (Sus scrofa) (UniProt P00690); test: as §1
T2 sequence (whole entry): T1 sequence (P00690 whole entry)

[3] = system: Saccharomyces cerevisiae; test: (§2) Inhibition of Saccharomyces cerevisiae alpha-glucosidase using 4-nitrophenyl alpha-D-glucopyranoside as substrate after 10 mins by UV-Vis spectrophotometric analysis
[4] = as §2
[5] = system: Saccharomyces cerevisiae; test: Potency index, ratio of acarbose IC50 to compound IC50 for Saccharomyces cerevisiae alpha-glucosidase

inhibition [2]	inhibition [3]	SMILES	further results
–	–	CC(=O)OCC1=C[C@H](O)[C@@H]2C(C(=O)O)=CO[C@@H](O[C@@H]3O[C@H](CO)[C@@H](O)[C@H](O)[C@H]3O)[C@H]12	IC50 [1]: 69.4 µM
Active	–	CC(=O)OCC1=C[C@@H]2OC(=O)C3=CO[C@@H](O[C@@H]4O[C@H](CO)[C@@H](O)[C@H](O)[C@H]4O)[C@H]1[C@@H]32	–
–	Active	COc1cc2ccc(=O)oc2c(O)c1O	–
Active	Active	C=C(C)C(O)Cc1c(O)c(OC)cc2ccc(=O)oc12 (configuration not stated)	–
–	–	C[C@H]1O[C@H](O[C@H]2[C@H](O)[C@@H](O)[C@@H](O[C@H]3[C@H](O)[C@@H](O)C(O)O[C@@H]3CO)O[C@@H]2CO)[C@H](O)[C@@H](O)[C@@H]1N[C@H]1C=C(CO)[C@@H](O)[C@H](O)[C@H]1O (some centres not stated) [ACARBOSE]	IC50 [4]: 403 µM
–	–	CC(C)=CCOc1cc(O)c2c(c1)O[C@H](c1ccc(O)c(O)c1)CC2=O	IC50 [4]: 28.1 µM; Ratio IC50 [5]: 10
Active	Active	C=C(C)[C@H]1Cc2c(c(O)cc3ccc(=O)oc23)O1	–
Active	–	C[C@]1(CO)Oc2c(O)cc3ccc(=O)oc3c2C=C1O	–
Active	Active	COc1cc2ccc(=O)oc2c2c1O[C@](C)(CO)C(O)=C2	–
Active	–	O=c1c(O[C@@H]2O[C@H](CO)[C@H](O)[C@H](O)[C@H]2O[C@@H]2O[C@H](CO)[C@@H](O)[C@H](O)[C@H]2O)c(-c2ccc(O)cc2)oc2cc(O)cc(O)c12	–
–	–	COc1cc(O)c2c(=O)c(O)c(-c3ccc(O)c(O)c3)oc2c1 [RHAMNETIN]	IC50 [1]: 73.9 µM
Active	–	O=C(/C=C/c1ccc(O)c(O)c1)O[C@@H]1C[C@](O)(C(=O)O)C[C@@H](O)[C@H]1O	–
Active	–	O=C(O)C1=CO[C@@H](O[C@@H]2O[C@H](CO)[C@@H](O)[C@H](O)[C@H]2O)[C@@H]2C(CO)=C[C@@H](O)[C@H]12	–
